Here are results for five compounds from patent US9951149B2, “Reversible heparin molecules and methods of making and using the same” (The University of North Carolina at Chapel Hill, priority 2013, dated 2018).

Data set [1] concerns the target T1, Stabilin-2 receptor (190-HARE) (Homo sapiens, UniProt Q8WWQ8).
T1 construct: The Stabilin-2 cell line expressing the 190-HARE; expressed in transfected cells
T1 sequence (Q8WWQ8 1136-2551 limits assumed): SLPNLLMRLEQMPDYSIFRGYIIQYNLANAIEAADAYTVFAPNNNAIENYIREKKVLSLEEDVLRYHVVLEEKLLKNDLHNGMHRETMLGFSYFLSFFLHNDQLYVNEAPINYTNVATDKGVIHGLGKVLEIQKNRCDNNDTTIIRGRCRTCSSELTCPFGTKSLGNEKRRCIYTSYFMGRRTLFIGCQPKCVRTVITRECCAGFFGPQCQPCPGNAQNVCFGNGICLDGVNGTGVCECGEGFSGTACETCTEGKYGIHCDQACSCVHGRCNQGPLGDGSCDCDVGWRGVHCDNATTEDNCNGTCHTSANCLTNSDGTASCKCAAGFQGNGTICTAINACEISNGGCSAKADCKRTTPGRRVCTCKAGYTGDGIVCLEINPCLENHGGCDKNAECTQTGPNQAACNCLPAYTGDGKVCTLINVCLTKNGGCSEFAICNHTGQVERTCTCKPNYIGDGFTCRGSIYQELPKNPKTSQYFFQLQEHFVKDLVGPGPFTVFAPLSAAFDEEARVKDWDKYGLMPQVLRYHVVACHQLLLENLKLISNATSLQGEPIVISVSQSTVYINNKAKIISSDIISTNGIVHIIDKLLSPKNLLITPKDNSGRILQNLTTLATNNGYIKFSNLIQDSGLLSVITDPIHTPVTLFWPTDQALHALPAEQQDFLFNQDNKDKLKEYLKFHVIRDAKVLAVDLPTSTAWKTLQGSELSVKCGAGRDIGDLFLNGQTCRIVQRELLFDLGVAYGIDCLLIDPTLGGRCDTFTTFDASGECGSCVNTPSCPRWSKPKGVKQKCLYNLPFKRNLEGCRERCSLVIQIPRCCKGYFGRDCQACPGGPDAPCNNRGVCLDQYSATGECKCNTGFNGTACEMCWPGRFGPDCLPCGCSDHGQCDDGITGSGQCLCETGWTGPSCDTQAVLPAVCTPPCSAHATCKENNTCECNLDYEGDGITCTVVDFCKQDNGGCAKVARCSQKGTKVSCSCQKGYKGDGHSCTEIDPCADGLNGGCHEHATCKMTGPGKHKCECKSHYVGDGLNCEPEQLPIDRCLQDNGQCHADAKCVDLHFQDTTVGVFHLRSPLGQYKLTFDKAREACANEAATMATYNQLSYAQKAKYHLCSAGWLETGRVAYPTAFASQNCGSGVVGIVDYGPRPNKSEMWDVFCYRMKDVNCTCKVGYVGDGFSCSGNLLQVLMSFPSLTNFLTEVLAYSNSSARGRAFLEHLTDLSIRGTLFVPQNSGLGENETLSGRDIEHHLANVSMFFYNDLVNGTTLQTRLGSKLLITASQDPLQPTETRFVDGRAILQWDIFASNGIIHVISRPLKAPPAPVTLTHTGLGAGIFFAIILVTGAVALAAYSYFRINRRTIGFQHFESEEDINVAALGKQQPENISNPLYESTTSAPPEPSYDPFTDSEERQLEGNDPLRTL
In words: Stabilin-2 mediated endocytosis of 35S-labeled LMWHs in Flp-In-293 cells. The format is cell-based. The following applies: Flp-In-293 cells expressing 190-HARE, 3 h at 37° C. (FIG. 5). Here is the method: FIG. 5 is a histogram of endocytosis of ^35S-labeled synthetic LMWHs in Flp-In-293 cells. The cells were stably transfected with the plasmid expressing the Stabilin-2 receptor (190-HARE). The internalization value was calculated by subtracting the nonspecific internalization background from the total internalization of a ^35S-labeled Compound. The background was determined by mixing the ^35S-labeled Compound with at least 100-fold molecular excess of unlabeled UFH.
The Stabilin-2 cell line expressing the 190-HARE (Harris et al., J. Biol. Chem. 279, 36201-36209, 2004) was grown to 90% confluency with DMEM+8% FBS+50 μgml^−1 Hygromycin B in 24-well plates for at least 2 days prior to the experiment in a standard tissue culture incubator. Endocytosis medium (DMEM+0.05% BSA) containing a known amount of ^35S-labeled LMWH Compound, LOVENOX®, or UFH was added to each well in triplicate and allowed to incubate with the cells for 3 h at 37° C., 5% CO2. Receptor specific internalization was assessed by incubating each radiolabeled ligand with at least a 100-fold excess of unlabeled UFH. The cells were then washed with Hank's Balanced Salt Solution (1.26 mM CaCl2, 5.33 mM KCl, 0.44 mM KH2PO4, 0.5 mM MgCl2-6H2O, 0.41 mM MgSO4-7H2O, 138 mM NaCl, 4.0 mM NaHCO3, […], 0.3 mM phenol red, pH 7.2) three-times, and cells were lysed in 0.4 ml 0.3 N NaOH. 0.35 ml of the cell lysate mixture was mixed with 4 ml scintillation fluid (Perkin Elmer, Waltham, Mass., United States of America) and radioactivity was measured by a Beckman Coulter LS6500 scintillation counter. The remaining 0.05 ml cell lysate was used to determine protein levels using the Bradford reagent (Sigma-Aldrich). The data was calculated as the percentage of specific CPM internalized of the total amount added per μg cell lysate protein±standard deviation.

Data set [2] relates to human factor Xa. In words: Neutralization of LMWHs by protamine in vitro (anti-Xa activity). The format is biochemical. The following applies: human plasma, protamine 0-90 μg/ml (FIG. 4B). The method, then: Determination of the in vitro and ex vivo anti-Xa activity. Assays were based on a previously published method (Zhang, L. et al., J. Biol. Chem. 276, 42311-42321, 2001; Duncan et al., Biochim Biophys Acta 1671, 34-43, 2004). Briefly, human factor Xa (Enzyme Research Laboratories, South Bend, Ind., United States of America) was diluted to 50 Uml^−1 with PBS. The chromogenic substrates, S-2765 was from Diapharma (Westchester, Ohio, United States of America) and made up at 1 mgml^−1 in water. UFH (from US Pharmacopea), LOVENOX® (from local pharmacy) and LMWH Compounds 1 to 5) was dissolved in PBS at various concentrations (3 to 600 μgml^−1). The reaction mixture, which consisted of 20 μl of human plasma (Sigma-Aldrich, St. Louis, Mo., United States of America) and 8 μl of the solution containing the sample, was incubated at room temperature for 5 min. Factor Xa (100 μl) was then added. After incubating at room temperature for 4 min, 30 μl of S-2765 substrate was added. The absorbance of the reaction mixture was measured at 405 nm continuously for 5 min. The absorbance values were plotted against the reaction time. The initial reaction rates as a function of concentration were used to calculate the IC50 values.
The procedures followed a previous publication (Sundaram, M. et al., Proc. Natl. Acad. Sci. 100, 651-656, 2003). The LMWH Compounds and protamine chloride (Sigma-Aldrich) were dissolved in PBS. The concentrations of the LMWH samples for each Compound were different because each Compound has different IC50 value for the anti-Xa activity. […] The mixture (30 μl) was then subjected to anti-Xa activity measurement as described above.

Structures are written as SMILES. Entries after “also recorded” stand apart in the source; their conditions may differ.

As to `O=C(O)C1OC(OC2C(COS(=O)(=O)O)OC(OC3C(C(=O)O)OC(OC4C(COS(=O)(=O)O)OC(OC5C(C(=O)O)OC(Oc6ccc([N+](=O)[O-])cc6)C(O)C5O)C(NS(=O)(=O)O)C4O)C(OS(=O)(=O)O)C3O)C(NS(=O)(=O)O)C2OS(=O)(=O)O)C(O)C(O)C1OC1OC(COS(=O)(=O)O)C(O)C(O)C1NS(=O)(=O)O` (stereo not shown) [Compound 1], the “endocytosis mediated by Stabilin-2 (internalization)” value (“endocytosis mediated” below) in data set [1] was “very low internalization”. For the same compound, in data set [2], the “in vitro reversibility of anti-Xa activity by protamine” value (from here on “in vitro reversibility”) was “Unlike Compounds 1, 2, and 3, Compound 4 was partially reversed by protamine”.
Regarding `O=C(O)C1OC(OC2C(COS(=O)(=O)O)OC(OC3C(C(=O)O)OC(OC4C(COS(=O)(=O)O)OC(OC5C(C(=O)O)OC(OC6C(COS(=O)(=O)O)OC(OC7C(C(=O)O)OC(Oc8ccc([N+](=O)[O-])cc8)C(O)C7O)C(NS(=O)(=O)O)C6O)C(OS(=O)(=O)O)C5O)C(NS(=O)(=O)O)C4O)C(OS(=O)(=O)O)C3O)C(NS(=O)(=O)O)C2OS(=O)(=O)O)C(O)C(O)C1OC1OC(COS(=O)(=O)O)C(O)C(O)C1NS(=O)(=O)O` (stereo not shown) [Compound 2], in data set [1], the “endocytosis mediated” value is reported as “very low internalization”. For the same compound, in data set [2], the “in vitro reversibility” value is “Unlike Compounds 1, 2, and 3, Compound 4 was partially reversed by protamine”.
On to `O=C(O)C1OC(OC2C(COS(=O)(=O)O)OC(OC3C(C(=O)O)OC(OC4C(COS(=O)(=O)O)OC(OC5C(C(=O)O)OC(OC6C(COS(=O)(=O)O)OC(OC7C(C(=O)O)OC(OC8C(COS(=O)(=O)O)OC(OC9C(C(=O)O)OC(Oc%10ccc([N+](=O)[O-])cc%10)C(O)C9O)C(NS(=O)(=O)O)C8O)C(OS(=O)(=O)O)C7O)C(NS(=O)(=O)O)C6O)C(OS(=O)(=O)O)C5O)C(NS(=O)(=O)O)C4O)C(OS(=O)(=O)O)C3O)C(NS(=O)(=O)O)C2OS(=O)(=O)O)C(O)C(O)C1OC1OC(COS(=O)(=O)O)C(O)C(O)C1NS(=O)(=O)O` (stereo not shown) [Compound 3], for which the “endocytosis mediated” value in data set [1] is “significant endocytosis”. Further, the “in vitro reversibility” value in data set [2] was “Unlike Compounds 1, 2, and 3, Compound 4 was partially reversed by protamine”.
Regarding `CC(=O)NC1C(OC2C(C(=O)O)OC(OC3C(COS(=O)(=O)O)OC(OC4C(C(=O)O)OC(OC5C(COS(=O)(=O)O)OC(OC6C(C(=O)O)OC(OC7C(COS(=O)(=O)O)OC(OC8C(C(=O)O)OC(OC9C(COS(=O)(=O)O)OC(OC%10C(C(=O)O)OC(OC%11C(COS(=O)(=O)O)OC(OC%12C(C(=O)O)OC(Oc%13ccc([N+](=O)[O-])cc%13)C(O)C%12O)C(NS(=O)(=O)O)C%11O)C(OS(=O)(=O)O)C%10O)C(NS(=O)(=O)O)C9O)C(OS(=O)(=O)O)C8O)C(NS(=O)(=O)O)C7O)C(OS(=O)(=O)O)C6O)C(NS(=O)(=O)O)C5O)C(OS(=O)(=O)O)C4O)C(NS(=O)(=O)O)C3OS(=O)(=O)O)C(O)C2O)OC(COS(=O)(=O)O)C(O)C1O` (stereo not shown) [Compound 4], in data set [1], the “endocytosis mediated” value was “significant endocytosis”. Moreover, the “in vitro reversibility” value in data set [2] is listed as “partially reversed by protamine”.
As to `CC(=O)NC1C(OC2C(C(=O)O)OC(OC3C(COS(=O)(=O)O)OC(OC4C(C(=O)O)OC(OC5C(COS(=O)(=O)O)OC(OC6C(C(=O)O)OC(OC7C(COS(=O)(=O)O)OC(OC8C(C(=O)O)OC(OC9C(COS(=O)(=O)O)OC(OC%10C(C(=O)O)OC(OC%11C(COS(=O)(=O)O)OC(OC%12C(C(=O)O)OC(Oc%13ccc([N+](=O)[O-])cc%13)C(O)C%12O)C(NS(=O)(=O)O)C%11O)C(OS(=O)(=O)O)C%10O)C(NS(=O)(=O)O)C9OS(=O)(=O)O)C(OS(=O)(=O)O)C8O)C(NS(=O)(=O)O)C7O)C(OS(=O)(=O)O)C6O)C(NS(=O)(=O)O)C5O)C(OS(=O)(=O)O)C4O)C(NS(=O)(=O)O)C3OS(=O)(=O)O)C(O)C2O)OC(COS(=O)(=O)O)C(O)C1O` (stereo not shown) [Compound 5], the “endocytosis mediated” value in data set [1] is “significant endocytosis”. The “in vitro reversibility” value in data set [2] was “same protamine reversibility as UFH and greater reversibility than LOVENOX®; also recorded: can be reversed by protamine”.
